Test results from patent publication US11571423B2, “Small molecule modulators of human sting” (Curadev Pharma Limited, priority 2017, dated 2023).
Structures can show the parent of a compound that is named as a salt.

molecular target: hSTING(R232) (Homo sapiens, UniProt Q86WV6, H232R); experiment: Luciferase reporter assay in HEK293T-hSTING-Luciferase cells, R232 (wild type) human STING; assay type: cell-based; details: 20 hr stimulation, read-out: R232 human activity (EC50 range)
Outline: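 After 20 hr compound stimulation of 5×10^5 cells, secreted luciferase in the supernatant was measured by luminescence; values are fold-induction over baseline and EC50. The line is a clonal HEK293T stably carrying a STING plasmid (pUNO-1) and a luciferase reporter under five tandem ISREs fused to an ISG54 promoter.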

Sequence of hSTING(R232) (Q86WV6 whole entry H232R, the tested form may be a part): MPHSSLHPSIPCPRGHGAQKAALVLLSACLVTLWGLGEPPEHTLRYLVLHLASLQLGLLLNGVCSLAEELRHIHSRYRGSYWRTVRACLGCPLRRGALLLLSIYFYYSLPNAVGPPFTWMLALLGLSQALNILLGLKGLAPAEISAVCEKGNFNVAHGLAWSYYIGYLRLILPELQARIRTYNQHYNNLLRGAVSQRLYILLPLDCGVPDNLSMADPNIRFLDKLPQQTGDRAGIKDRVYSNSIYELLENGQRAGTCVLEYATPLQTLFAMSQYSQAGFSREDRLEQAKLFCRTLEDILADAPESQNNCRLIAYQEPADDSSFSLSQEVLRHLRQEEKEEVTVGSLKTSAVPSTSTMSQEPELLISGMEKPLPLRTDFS

EC50 | SMILES
< 1000 nM | CC1c2ccc(C(=O)NCc3ccc(F)cc3F)cc2N(Cc2ccccc2F)C(=O)N1C (stereo not shown) [Example 197, N-(2,4-difluorobenzyl)-1-(2-fluorobenzyl)-3,4-dimethyl-2-oxo-1,2,3,4-tetrahydroquinazoline-7-carboxamide]
> 10000 nM | CN1Cc2ccc(C(=O)NCc3c(F)cc(F)cc3F)cc2N(Cc2cn(C)cn2)C1=O [Example 37, 3-methyl-1-((1-methyl-1H-imidazol-4-yl)methyl)-2-oxo-N-(2,4,6-trifluorobenzyl)-1,2,3,4-tetrahydroquinazoline-7-carboxamide]
1000 to 10000 nM | CN1Cc2ccc(C(=O)NCc3ccccc3F)cc2N(Cc2c(F)cccc2Cl)C1=O [Example 30, 1-(2-chloro-6-fluorobenzyl)-N-(2-fluorobenzyl)-3-methyl-2-oxo-1,2,3,4-tetrahydroquinazoline-7-carboxamide]
< 1000 nM | CC1c2ccc(C(=O)NCc3c(F)cc(F)cc3F)cc2N(Cc2c(F)cc(Cl)cc2F)C(=O)N1C (stereo not shown) [Example 222, 1-(4-chloro-2,6-difluorobenzyl)-3,4-dimethyl-2-oxo-N-(2,4,6-trifluorobenzyl)-1,2,3,4-tetrahydroquinazoline-7-carboxamide]
> 10000 nM | Cc1cc(CN2C(=O)N(C)C(C)c3ccc(C(=O)NCc4c(F)cc(F)cc4F)cc32)on1 (stereo not shown) [Example 199, 3,4-dimethyl-1-((3-methylisoxazol-5-yl)methyl)-2-oxo-N-(2,4,6-triflurobenzyl)-1,2,3,4-tetrahydroquinazoline-7-carboxamide]
< 1000 nM | C[C@H]1c2ccc(C(=O)NCc3c(F)cc(O)cc3F)cc2N(Cc2c(F)cc(O)cc2F)C(=O)N1C [Example 150, (S)—N,1-bis(2,6-Difluoro-4-hydroxybenzyl)-3,4-dimethyl-2-oxo-1,2,3,4-tetrahydroquinazoline-7-carboxamide]
< 1000 nM | C[C@H]1c2ccc(C(=O)NCc3c(F)cc(F)cc3F)cc2N(Cc2c(OCCOP(=O)(O)O)ccc(F)c2F)C(=O)N1C [Example 91, (S)-2-(2-((3,4-dimethyl-2-oxo-7-((2,4,6-trifluorobenzyl)carbamoyl)-3,4-dihydroquinazolin-1(2H)-yl)methyl)-3,4-difluorophenoxy)ethyl dihydrogen phosphate]
< 1000 nM | CC1c2ccc(C(=O)NCc3c(F)cc(F)cc3F)cc2N(Cc2ccccc2F)C(=O)N1C (stereo not shown) [Example 201, 1-(2-fluorobenzyl)-3,4-dimethyl-2-oxo-N-(2,4,6-trifluorobenzyl)-1,2,3,4-tetrahydroquinazoline-7-carboxamide]
< 1000 nM | CN1Cc2ccc(C(=O)NCc3c(F)cc(F)cc3F)cc2N(Cc2c(F)cccc2Cl)C1=O [Example 5, 1-(2-chloro-6-fluorobenzyl)-3-methyl-2-oxo-N-(2,4,6-trifluorobenzyl)-1,2,3,4-tetrahydroquinazoline-7-carboxamide]
< 1000 nM | Cc1ccc(Cl)c(CN2C(=O)N(C)Cc3ccc(C(=O)NCc4c(F)cc(F)cc4F)cc32)c1F [Example 66, 1-(6-chloro-2-fluoro-3-methylbenzyl)-3-methyl-2-oxo-N-(2,4,6-trifluorobenzyl)-1,2,3,4-tetrahydroquinazoline-7-carboxamide]
< 1000 nM | CC1c2ccc(C(=O)NCc3c(F)cc(F)cc3F)cc2N(Cc2c(F)cccc2F)C(=O)N1C (stereo not shown) [Example 195, 1-(2,6-difluorobenzyl)-3,4-dimethyl-2-oxo-N-(2,4,6-trifluorobenzyl)-1,2,3,4-tetrahydroquinazoline-7-carboxamide]
1000 to 10000 nM | CC(C)N1Cc2ccc(C(=O)NCc3c(F)cc(F)cc3F)cc2N(Cc2cc(F)cc(F)c2)C1=O [Example 15, 1-(3,5-difluorobenzyl)-3-isopropyl-2-oxo-N-(2,4,6-trifluorobenzyl)-1,2,3,4-tetrahydroquinazoline-7-carboxamide]
1000 to 10000 nM | CN1Cc2ccc(C(=O)NCc3c(F)cc(F)cc3F)cc2N(Cc2cccc(C(N)=O)c2)C1=O [Example 14, 1-(3-carbamoylbenzyl)-3-methyl-2-oxo-N-(2,4,6-trifluorobenzyl)-1,2,3,4-tetrahydroquinazoline-7-carboxamide]
1000 to 10000 nM | CN1Cc2ccc(C(=O)NCc3ccc4occc4c3)cc2N(Cc2c(F)cccc2Cl)C1=O [Example 32, N-(benzofuran-5-ylmethyl)-1-(2-chloro-6-fluorobenzyl)-3-methyl-2-oxo-1,2,3,4-tetrahydroquinazoline-7-carboxamide]
< 1000 nM | CN1Cc2ccc(C(=O)NCc3c(F)cc(F)cc3F)cc2N(Cc2c(F)cccc2Br)C1=O [Example 11, 1-(2-bromo-6-fluorobenzyl)-3-methyl-2-oxo-N-(2,4,6-trifluorobenzyl)-1,2,3,4-tetrahydroquinazoline-7-carboxamide]
1000 to 10000 nM | COc1cc(F)c(CNC(=O)c2ccc3c(c2)N(Cc2c(F)cccc2Cl)C(=O)N(C)C3)c(F)c1 [Example 60, 1-(2-chloro-6-fluorobenzyl)-N-(2,6-difluoro-4-methoxybenzyl)-3-methyl-2-oxo-1,2,3,4-tetrahydroquinazoline-7-carboxamide]
< 1000 nM | C[C@H]1c2ccc(C(=O)NCc3c(F)cc(F)cc3F)cc2N(Cc2c(F)ccc(OCCCOP(=O)(O)O)c2F)C(=O)N1C [Example 104, (S)-3-(3-((3,4-dimethyl-2-oxo-7-((2,4,6-trifluorobenzyl)carbamoyl)-3,4-dihydroquinazolin-1(2H)-yl)methyl)-2,4-difluorophenoxy)propyl dihydrogen phosphate]
1000 to 10000 nM | CN1Cc2ccc(C(=O)NCc3c(F)cc(F)cc3F)cc2N(Cc2c(Cl)cccc2Cl)C1=O [Example 62, l-(2,6-dichlorobenzyl)-3-methyl-2-oxo-N-(2,4,6-trifluorobenzyl)-1,2,3,4-tetrahydroquinazoline-7-carboxamide]
1000 to 10000 nM | C[C@@H]1c2ccc(C(=O)NCc3c(F)cc(F)cc3F)cc2N(Cc2c(O)cccc2F)C(=O)N1C [Example 172, (R)-1-(2-fluoro-6-hydroxybenzyl)-3,4-dimethyl-2-oxo-N-(2,4,6-trifluorobenzyl)-1,2,3,4-tetrahydroquinazoline-7-carboxamide]
< 1000 nM | CC1c2ccc(C(=O)NCc3c(F)cc(F)cc3F)cc2N(Cc2c(F)cccc2Br)C(=O)N1C (stereo not shown) [Example 158, 1-(2-bromo-6-fluorobenzyl)-3,4-dimethyl-2-oxo-N-(2,4,6-trifluorobenzyl)-1,2,3,4-tetrahydroquinazoline-7-carboxamide]
1000 to 10000 nM | CN1Cc2ccc(C(=O)NCc3cc4ccc(F)cc4o3)cc2N(Cc2c(F)cccc2Cl)C1=O [Example 23, 1-(2-chloro-6-fluorobenzyl)-N-((6-fluorobenzofuran-2-yl)methyl)-3-methyl-2-oxo-1,2,3,4-tetrahydroquinazoline-7-carboxamide]
1000 to 10000 nM | C[C@H]1c2ccc(C(=O)NCc3ccc(F)cc3O)cc2N(Cc2c(F)cccc2Cl)C(=O)N1C [Example 253, (S)-1-(2-chloro-6-fluorobenzyl)-N-(4-fluoro-2-hydroxybenzyl)-3,4-dimethyl-2-oxo-1,2,3,4-tetrahydroquinazoline-7-carboxamide]
1000 to 10000 nM | CN1Cc2ccc(C(=O)NCc3cc4cc(F)ccc4o3)cc2N(Cc2c(F)cccc2Cl)C1=O [Example 24, 1-(2-chloro-6-fluorobenzyl)-N-((5-fluorobenzofuran-2-yl)methyl)-3-methyl-2-oxo-1,2,3,4-tetrahydroquinazoline-7-carboxamide]
< 1000 nM | C[C@H]1c2ccc(C(=O)NCc3c(F)cc(F)cc3F)cc2N(Cc2c(F)cccc2NCCCO)C(=O)N1C [Example 278, (S)-1-(2-fluoro-6-((3-hydroxypropyl)amino)benzyl)-3,4-dimethyl-2-oxo-N-(2,4,6-trifluorobenzyl)-1,2,3,4-tetrahydroquinazoline-7-carboxamide]
> 10000 nM | O=C(NCc1c(F)cc(F)cc1F)c1ccc2c(c1)N(Cc1c(F)cccc1Cl)C(=O)N(O)C2 [Example 69, 1-(2-chloro-6-fluorobenzyl)-3-hydroxy-2-oxo-N-(2,4,6-trifluorobenzyl)-1,2,3,4-tetrahydroquinazoline-7-carboxamide]
< 1000 nM | CC1c2ccc(C(=O)NCc3c(F)cc(F)cc3F)cc2N(Cc2c(F)cccc2OCCO)C(=O)N1C (stereo not shown) [Example 236, 1-(2-fluoro-6-(2-hydroxyethoxy)benzyl)-3,4-dimethyl-2-oxo-N-(2,4,6-trifluorobenzyl)-1,2,3,4-tetrahydroquinazoline-7-carboxamide]
1000 to 10000 nM | C[C@H]1c2ccc(C(=O)NCc3c(F)cc(F)cc3F)cc2N(Cc2c(F)cccc2NC(=O)CN)C(=O)N1C [Example 272, (S)-1-(2-(2-aminoacetamido)-6-fluorobenzyl)-3,4-dimethyl-2-oxo-N-(2,4,6-trifluorobenzyl)-1,2,3,4-tetrahydroquinazoline-7-carboxamide dihydrochloride]
< 1000 nM | C[C@H]1c2ccc(C(=O)NCc3c(F)cc(F)cc3F)cc2N(Cc2c(F)cc(OCCN)cc2F)C(=O)N1C [Example 292, (S)-1-(4-(2-aminoethoxy)-2,6-difluorobenzyl)-3,4-dimethyl-2-oxo-N-(2,4,6-trifluorobenzyl)-1,2,3,4-tetrahydroquinazoline-7-carboxamide hydrochloride]
< 1000 nM | C[C@H]1c2ccc(C(=O)NCc3cccc(O)c3F)cc2N(Cc2c(F)cccc2Cl)C(=O)N1C [Example 267, (S)-1-(2-chloro-6-fluorobenzyl)-N-(2-fluoro-3-hydroxybenzyl)-3,4-dimethyl-2-oxo-1,2,3,4-tetrahydroquinazoline-7-carboxamide]
1000 to 10000 nM | CC1NC(=O)N(Cc2c(F)cccc2Cl)c2cc(C(=O)NCc3c(F)cc(F)cc3F)ccc21 (stereo not shown) [Example 189, 1-(2-chloro-6-fluorobenzyl)-4-methyl-2-oxo-N-(2,4,6-trifluorobenzyl)-1,2,3,4-tetrahydroquinazoline-7-carboxamide]

SMILES | EC50
C[C@H]1c2ccc(C(=O)NCc3ccc(F)cc3OP(=O)(O)O)cc2N(Cc2c(F)cccc2Cl)C(=O)N1C [Example 93, (S)-2-((1-(2-chloro-6-fluorobenzyl)-3,4-dimethyl-2-oxo-1,2,3,4-tetrahydroquinazoline-7-carboxamido)methyl)-5-fluorophenyl dihydrogen phosphate] | < 1000 nM
